Values of other authors in patent publication US20220339166A1, “POST COVID19 VACCINE REMEDIES” (priority 2021, published 2022).
Where two headings read alike, the source gives them in different places.

Assays:
[1] = test system: mouse bone marrow; conditions: in vivo
[2] = target: ODC (Homo sapiens, UniProt P11926)
[3] = test system: Trypanosoma cruzi
[4] = target: ACE2 (Homo sapiens, UniProt Q9BYF1)
Sequence of ACE2 (Q9BYF1 18-805): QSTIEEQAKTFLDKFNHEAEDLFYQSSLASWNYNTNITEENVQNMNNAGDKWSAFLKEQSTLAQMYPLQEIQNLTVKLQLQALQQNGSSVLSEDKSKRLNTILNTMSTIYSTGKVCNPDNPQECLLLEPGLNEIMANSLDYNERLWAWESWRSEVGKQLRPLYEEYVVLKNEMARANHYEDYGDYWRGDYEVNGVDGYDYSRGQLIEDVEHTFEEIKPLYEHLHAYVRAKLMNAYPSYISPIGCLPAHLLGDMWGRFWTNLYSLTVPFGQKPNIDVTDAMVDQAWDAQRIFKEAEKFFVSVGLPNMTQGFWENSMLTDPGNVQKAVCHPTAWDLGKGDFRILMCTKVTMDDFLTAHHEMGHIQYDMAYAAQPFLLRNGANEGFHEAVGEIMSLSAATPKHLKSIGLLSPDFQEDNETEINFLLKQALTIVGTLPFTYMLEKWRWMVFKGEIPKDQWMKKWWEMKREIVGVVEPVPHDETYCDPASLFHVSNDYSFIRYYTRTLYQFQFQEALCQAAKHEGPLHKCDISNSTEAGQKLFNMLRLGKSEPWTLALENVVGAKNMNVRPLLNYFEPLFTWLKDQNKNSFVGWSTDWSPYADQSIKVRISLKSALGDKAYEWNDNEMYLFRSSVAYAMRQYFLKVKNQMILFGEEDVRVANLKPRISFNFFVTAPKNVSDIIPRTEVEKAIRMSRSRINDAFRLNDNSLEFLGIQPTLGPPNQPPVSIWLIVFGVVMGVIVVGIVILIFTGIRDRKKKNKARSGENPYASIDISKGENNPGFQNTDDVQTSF

Sequence of ODC (P11926 whole entry): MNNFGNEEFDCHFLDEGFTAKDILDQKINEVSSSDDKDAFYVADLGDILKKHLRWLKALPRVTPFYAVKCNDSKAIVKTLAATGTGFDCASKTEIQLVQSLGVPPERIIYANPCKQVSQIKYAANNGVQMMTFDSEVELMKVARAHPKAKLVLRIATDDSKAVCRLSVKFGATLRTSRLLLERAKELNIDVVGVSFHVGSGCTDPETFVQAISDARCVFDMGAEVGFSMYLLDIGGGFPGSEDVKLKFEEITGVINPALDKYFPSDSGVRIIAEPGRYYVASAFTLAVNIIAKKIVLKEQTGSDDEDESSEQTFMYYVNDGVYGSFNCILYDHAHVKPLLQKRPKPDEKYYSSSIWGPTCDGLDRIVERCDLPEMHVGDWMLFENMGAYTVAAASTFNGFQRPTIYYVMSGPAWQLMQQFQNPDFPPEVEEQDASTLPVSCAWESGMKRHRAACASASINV

## NCCS [Cysteamine]
[1]
  DNA synthesis: inhibits DNA synthesis

## NCCCC(N)(C(=O)O)C(F)F (stereo not drawn) [DFMO]
[2]
  stalls DNA synthesis: 70-80%

## O=C(Cn1ccnc1[N+](=O)[O-])NCc1ccccc1 [benznidazole]
[3]; given soon after infection, at the onset of the acute phase
  effective in curing: ~100%

## NCCCC[C@H](N)C(=O)O [lysine]
[4]
  reduction of ACE2 affinity and interference with fusion domain for S1 spike protein: 10%

## CC1CS(=O)(=O)CCN1/N=C/c1ccc([N+](=O)[O-])o1 (stereo not drawn) [nifurtimox]
[3]; in vivo
  effective in curing: ~100%

## O=C([O-])O.[Na+] [sodium bicarbonate]
[4]
  reduction of ACE2 affinity and interference with fusion domain for S1 spike protein: 17%
